Experimental data from PubChem BioAssay AID179 (DTP/NCI, 2004).
Activity calls are given as the source filed them.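 Rule for the calls: active = compounds giving half or more protection of infected cells from virus-caused growth loss, again on retest; inactive = the rest.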

Tested on: CEM cells HIV-1 protection, formazan growth assay
Experiment: NCI AIDS Antiviral Assay
Conditions: for IC50: measured here: growth of uninfected CEM cells
Summary of the method: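 Protection of CEM cells against HIV-1 measured as cell growth via soluble formazan read-out, with five concentrations tested on both infected and uninfected cells; failure to protect may reflect toxicity.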

Structure (SMILES) | EC50 | IC50 | outcome
CCCCCCCCCCCCCCCC=C(c1cc(Br)cc(C(=O)OC)c1OC)c1cc(Br)cc(C(=O)OC)c1OC | > 25.7 µM | > 25.7 µM | –
NCC[PH+](c1ccccc1)c1ccccc1.NCC[PH+](c1ccccc1)c1ccccc1.[Cl-].[Pt+4] | > 200 µM | 72.4 µM | –
COC(=O)C1=C(C)N2CCCOC2(C)C(C(=O)OC)C1c1cccc(Cl)c1 (stereo unspecified) | > 200 µM | 112 µM | –
CC(=O)[O-].O=S(=O)(Nc1ncccn1)c1ccc(N=Cc2ccccc2O)cc1.O=S(=O)(Nc1ncccn1)c1ccc(N=Cc2ccccc2O)cc1.[Cu+2] | > 200 µM | 38 µM | –
CC1(C)Oc2ccccc2[N+]([O-])=C1c1ccccc1 | > 141 µM | > 141 µM | –
Cc1cc(/C=C2/OC(=O)c3ccccc32)cc(C)c1O | > 100 µM | > 100 µM | –
CCOP(=O)(OCC)C(C)(CC)NC1=NC(C(F)(F)F)(C(F)(F)F)NC(=O)N1 (stereo unspecified) | > 200 µM | > 200 µM | –
O=[N+]([O-])c1ccc(N2CCOS(=O)OCC2)cc1 | > 200 µM | > 200 µM | –
c1ccc(P(OCCCCOP(c2ccccc2)c2ccccc2)c2ccccc2)cc1 | > 200 µM | 85.1 µM | –
Cc1ccc(-n2c(Cn3nnc(-c4cccnc4)n3)nn(C3OC(COC(=O)c4ccccc4)C(OC(=O)c4ccccc4)C3OC(=O)c3ccccc3)c2=S)cc1 (stereo unspecified) | > 200 µM | > 200 µM | –
C1CCC(OCC2(COC3CCCCO3)CCCCO2)OC1 (stereo unspecified) | > 200 µM | > 200 µM | –
Cc1ccc(Nc2cc(=O)[nH]c(=O)[nH]2)cc1CS | > 200 µM | 93.3 µM | –
O=C(Nc1nc2ncn(CCO)c2c(=O)[nH]1)c1ccccc1 | > 832 µM | > 832 µM | –
CC1=NN(C(=O)c2ccccc2O)C(=O)/C1=C/c1ccc([N+](=O)[O-])cc1 | > 53.7 µM | 0.0912 µM | –
O=C1NC(=O)C2C(=O)NC(=O)C1C2Cc1ccco1 (stereo unspecified) | > 955 µM | > 955 µM | –
CCOC(=O)/C(=C/c1ccccc1)C(=O)c1ccccc1 | > 25.7 µM | 20 µM | –
CC(=O)O[C@H]1CC2CCCC2C2C(=O)OC(=O)C21 (stereo partly specified) | – | – | active
CCN(CC)c1cc2c3c(c1)CCCN3CCC2 | > 100 µM | 95.5 µM | –
C1=NCCNCCNCCN=Cc2ccccc2OCc2cccc(n2)COc2ccccc21 | > 50.1 µM | 7.76 µM | –
Nc1nc2c(-c3ccc([N+](=O)[O-])cc3)nnn2c2cccc(Cl)c12 | > 3.98 µM | > 3.98 µM | –
O=C1CC(NC(=O)C(F)(F)F)c2c(Br)sc(N3CCOCC3)c21 (stereo unspecified) | > 200 µM | > 200 µM | –
Cc1sc(N)c(S(=O)(=O)c2ccccc2)c1C | 166 µM | 195 µM | –

Structure (SMILES) | EC50 | IC50 | outcome
COC1/C=C\OC2(C)Oc3c(C)c(O)c4c(O)c(c(/C=N\N(C)C)c(O)c4c3C2=O)NC(=O)/C(C)=C\C=C/C(C)C(O)C(C)C(O)C(C)C(OC(C)=O)C1C (stereo unspecified) | > 200 µM | 12.9 µM | –
Cn1ccc(-c2cn(C)c3ccnn3c2=O)n1 | > 200 µM | > 200 µM | –
COc1ccc(CCN2CCC(C#N)(c3ccc(OC)c(OC)c3)CC2)cc1OC | > 57.5 µM | > 57.5 µM | –
Cc1nc2ccccc2c(=O)n1NC(=O)c1ccccn1 | > 200 µM | > 200 µM | –
COc1cc(CNc2nc3c(NC(C)=O)cc(C(F)(F)F)cc3nc2-c2ccccc2)cc(OC)c1OC | > 13.8 µM | 11.7 µM | –
N/C(=N/N=C/c1ccc(Cl)c([N+](=O)[O-])c1)NO | – | – | inactive
OC1(c2cccc(Cl)c2)C2=NCCCN2c2ccccc21 (stereo unspecified) | – | – | inactive
Cc1ccnc2c1C(=O)C(=O)C=C2N1CCOCC1 | – | – | inactive
C=C1C(OC(=O)C(OC(C)=O)C(c2ccccc2)N(C)C)C[C@H](OC(C)=O)[C@]2(C)C1C(OC(C)=O)[C@@H]1CC(OC(C)=O)C(C)=C([C@@H](OC(C)=O)C2OC(C)=O)C1(C)C (stereo partly specified) | – | – | inactive
CCOC(=O)/C=C\[C@H]1OC(C)(C)O[C@H]1[C@H](O)[C@H]1COC(C)(C)O1 | > 20 µM | 11.2 µM | –
C=C1C2CC3CCC2C(OC(=O)c2ccccc2C(=O)O)C13 (stereo unspecified) | > 200 µM | > 200 µM | –
CC(=O)N(C(=O)CC(=O)NN)c1ccc(Cl)cc1 | – | – | inactive
COc1cnn(-c2ccccc2)c(=O)c1SCc1ccc(Cl)c(Cl)c1 | > 34.7 µM | 27.5 µM | –
C[C@@]1(O)CC[C@]2(C)C3CCCC3[C@H]12 (stereo partly specified) | – | – | inactive
CCOc1cc2c(=O)oc3c(OC)ccc4ccc(c1OC)c2c43 | – | – | inactive
CC(C)COC(=O)c1ccc(N=Cc2ccc(C=Nc3ccc(C(=O)OCC(C)C)cc3)cc2)cc1 | > 10.7 µM | > 10.7 µM | –
C[C@@H](NC(=O)c1ccccc1SC(=O)CCCC[n+]1ccccc1)C(N)=O | 0.741 µM | 105 µM | –
COP(=O)(OC)C(Cc1c[nH]c2ccccc12)NC(=O)OCc1ccccc1 (stereo unspecified) | > 200 µM | > 200 µM | –
CCOC(=O)C1=C(NNC(=O)Cc2ccccc2)CSC1=Nc1ccccc1 | > 18.2 µM | > 18.2 µM | –
CCN1CC2(OC(=O)c3ccccc3NC(C)=O)CCC(OC)C34C1C(CC23)C1(O)CC(OC)C2CC4C1(O)C2OC (stereo unspecified) | – | – | inactive
CC(C)N(C(C)C)P(=O)(OP(=O)(c1ccc([N+](=O)[O-])cc1)N(C(C)C)C(C)C)c1ccc([N+](=O)[O-])cc1 (stereo unspecified) | > 200 µM | 151 µM | –
O=C(Nc1ccc(Cl)cc1)c1cc(S(=O)(=O)NC2=NC(c3ccccc3)c3cc(Cl)ccc3N2)c(SSc2cc(Cl)c(C(=O)Nc3ccc(Cl)cc3)cc2S(=O)(=O)NC2=NC(c3ccccc3)c3cc(Cl)ccc3N2)cc1Cl (stereo unspecified) | > 200 µM | > 200 µM | –

Structure (SMILES) | EC50 | IC50 | outcome
COC(=O)C1[C@@H](C(=O)OC)C12C=Cc1ccccc1C=C2 (stereo partly specified) | > 200 µM | > 200 µM | –
CN(C)CCNc1ccc(NCC[N+](C)(C)Cc2ccc([N+](=O)[O-])cc2)c2c1C(=O)c1c(O)ccc(O)c1C2=O | > 20 µM | 0.891 µM | –
CCc1c(CNC2=NCCN2)c(CC)c(CNC2=NCCN2)c(CC)c1CNC1=NCCN1 | > 200 µM | > 200 µM | –
CCCCCOB(OCCCCC)OCCCCC | – | – | inactive
CC1C(c2ccc3c(c2)OCO3)c2cc3c(cc2OC1N1CCCCC1)OCO3 (stereo unspecified) | > 200 µM | 33.9 µM | –
CN(C)N1C(=O)S/C(=C\c2ccc([N+](=O)[O-])cc2)C1=O | > 200 µM | > 200 µM | –
Cc1ccc([N+](=O)[O-])c2c(NCCCN(C)C)c3ccccc3nc12 | > 0.2 µM | 0.0513 µM | –
CN(C)c1ccc(C2=NC(=S)NC(c3cc(Cl)ccc3O)C2)cc1 (stereo unspecified) | > 200 µM | 30.2 µM | –
O=c1cc(C(F)(F)F)c2cc3c4c(c2o1)CCCN4CCC3 | > 4.68 µM | > 4.68 µM | –
O=C1C(C(c2ccccc2)N2CCOCC2)=C(O)C(c2ccccc2)N1c1ccccc1 (stereo unspecified) | – | – | inactive
CC(=O)C1CCC2C3CC4OCC5(CCC(O)CC45Br)C3CCC12C (stereo unspecified) | > 200 µM | 40.7 µM | –
CC1(O)/C(=N/O)CC2CC1C2(C)C (stereo unspecified) | > 1350 µM | > 1350 µM | –
O=C1NC(=S)S/C1=C\c1ccc2c(c1)OCO2 | > 200 µM | 85.1 µM | –
CCOC(=O)C1=C(C)N2CCOC2(C)C(C(=O)OC)C1c1cccc(Cl)c1 (stereo unspecified) | > 66.1 µM | > 66.1 µM | –
C=CCOP1(OCC=C)=NP(OCC=C)(OCC=C)=NP(OCC=C)(OCC=C)=N1 | > 200 µM | 8.51 µM | –
N#CC(=C1CCN(CCCC(=O)c2ccc(F)cc2)CC1)c1ccccc1 | > 200 µM | > 200 µM | –
Cc1cc(N(CCC#N)CCC#N)ccc1/C=C/C(=O)Nc1cccc(Cl)c1 | > 66.1 µM | > 66.1 µM | –
Cc1ccc2[nH]c3c(c2c1)CCC/C3=N/N=C(N)N | > 20 µM | 3.02 µM | –
CC1/C=C/C=C/CC/C=C/C=C/C=C/C=C/C(OC2OC(C)C(O)C(N)C2O)CC2OC(CC(O)C(O)CCC(O)CC(O)CC(O)CC(=O)OC(C)C(C)C1O)CC(O)C2C(=O)O (stereo unspecified) | > 50.1 µM | 3.31 µM | –
O=C1Cc2csc3nc(=O)cc(n23)N1 | > 120 µM | > 120 µM | –
OC(C1CO1)C(O)C1CO1 (stereo unspecified) | > 427 µM | 0.891 µM | –
CC12CC3CC(C)(C1)CC(N=[N+]=[N-])(C3)C2 | > 91.2 µM | > 91.2 µM | –

Structure (SMILES) | EC50 | IC50 | outcome
c1ccc([P+](Cc2csnn2)(c2ccccc2)c2ccccc2)cc1 | > 331 µM | 174 µM | –
NC(N)=N/N=C/c1c[nH]c2ccccc12 | > 955 µM | 55 µM | –
O=C(O)c1ccccc1CC1Cc2ccccc2C1=O (stereo unspecified) | > 200 µM | > 200 µM | –
O=c1[nH]cnc2sc(Nc3ccccc3)nc12 | – | – | inactive
NC(=O)OCC(COc1ccc(Cl)cc1)OC(=O)c1cc([N+](=O)[O-])cc([N+](=O)[O-])c1 (stereo unspecified) | > 562 µM | 398 µM | –
NCCN.O=C([O-])CC(O)C(=O)[O-].[Pt+4] (stereo unspecified) | > 200 µM | 12 µM | –
COC(=O)[C@H](C)N(C)C(=O)[C@H](C)N1[C@@H](c2ccccc2)COC1(C)C | > 200 µM | > 200 µM | –
COC(=O)/C(=C/c1ccc(OC)cc1)C(C(=O)O)=C1CCCC1 | > 158 µM | – | –
COC(=O)c1nc(-c2nc(CCNC(=O)OC(C)(C)C)sc2Cl)sc1Cl | > 4.27 µM | > 4.27 µM | –
Cn1cccnc1=O | > 200 µM | > 200 µM | –
CCOP(=O)(CC1CC(O)(CNc2cc(Cl)nc(N)n2)C1)OCC (stereo unspecified) | > 200 µM | > 200 µM | –
Cn1c2ccccc2c(=O)c2c([N+](=O)[O-])ccc(NCCN)c21 | – | – | inactive
O=C1CC(=O)Nc2ccccc2N1 | > 200 µM | > 200 µM | –
CC(C)(C)[Si](C)(C)OCC1OC(n2ccc(=O)[nH]c2=O)C(O[Si](C)(C)C(C)(C)C)[C@]12N[C@H](C(=O)O)CS2 (stereo partly specified) | > 200 µM | 10.7 µM | –
Cc1cccc(C(=O)c2ccccc2)c1C(=O)O | > 200 µM | > 200 µM | –
O=S(=O)(O)c1ccc(O)c(N=Nc2ccc(S(=O)(=O)c3ccc(N=Nc4cc(S(=O)(=O)O)ccc4O)cc3)cc2)c1 | > 100 µM | > 100 µM | –
Oc1ccc([C@H]2Oc3c(ccc(O)c3O)[C@@H](O)[C@H]2O)cc1O | > 200 µM | 29.5 µM | –
CCCCOP(=O)(OCCCC)OP(=O)(OCCCC)OCCCC | > 200 µM | > 200 µM | –
Nc1ccccc1C(=O)/C=C/c1ccccc1O | > 74.1 µM | 52.5 µM | –
